Source: ChEMBL document CHEMBL3774317, “Design and synthesis of novel tamoxifen analogues that avoid CYP2D6 metabolism” (Eur J Med Chem, 2016)

Experiments:
Assay type in all cases: functional
NCI-H226 = test: Cytotoxicity against human NCI-H226 cells assessed as cell growth at 10^-4 M after 48 hrs by SRB assay; details: NCI-H226, 48 h, read-out: Activity
[1] = Cytotoxicity against human NCI-ADR-RES cells assessed as cell growth at 10^-7 M after 48 hrs by SRB assay; details: read-out: Activity
[2] = Cytotoxicity against human SNB75 cells assessed as cell growth at 10^-6 M after 48 hrs by SRB assay; details: SNB-75, 48 h, read-out: Activity
[3] = Cytotoxicity against human HL-60(TB) cells assessed as cell growth at 10^-8 M after 48 hrs by SRB assay; details: HL-60, 48 h, read-out: Activity
[4] = Cytotoxicity against human SF539 cells assessed as cell growth at 10^-7 M after 48 hrs by SRB assay; details: SF-539, 48 h, read-out: Activity
786-0 = test: Cytotoxicity against human 786-0 cells assessed as cell growth at 10^-6 M after 48 hrs by SRB assay; details: 786-0, 48 h, read-out: Activity
T47D = test: Cytotoxicity against human T47D cells assessed as cell growth at 10^-5 M after 48 hrs by SRB assay; details: read-out: Activity
MDA-MB-435 = test: Cytotoxicity against human MDA-MB-435 cells assessed as cell growth at 10^-6 M after 48 hrs by SRB assay; details: MDA-MB-435, 48 h, read-out: Activity
[5] = Cytotoxicity against human NCI-ADR-RES cells assessed as cell growth at 10^-4 M after 48 hrs by SRB assay; details: read-out: Activity
MDA-MB-468 = test: Cytotoxicity against human MDA-MB-468 cells assessed as cell growth at 10^-4 M after 48 hrs by SRB assay; details: MDA-MB-468, 48 h, read-out: Activity
[6] = Cytotoxicity against human SF268 cells assessed as cell growth at 10^-5 M after 48 hrs by SRB assay; details: SF-268, 48 h, read-out: Activity
CCRF-CEM = test: Cytotoxicity against human CCRF-CEM cells assessed as cell growth at 10^-4 M after 48 hrs by SRB assay; details: read-out: Activity
[7] = Cytotoxicity against human SF268 cells assessed as cell growth at 10^-7 M after 48 hrs by SRB assay; details: SF-268, 48 h, read-out: Activity
SN12C = test: Cytotoxicity against human SN12C cells assessed as cell growth at 5 uM after 48 hrs by SRB assay; details: read-out: Activity
[8] = Cytotoxicity against human HOP62 cells assessed as cell growth at 0.5 uM after 48 hrs by SRB assay; details: HOP-62, 48 h, read-out: Activity
[9] = Cytotoxicity against human IGROV1 cells assessed as cell growth at 5 nM after 48 hrs by SRB assay; details: IGROV-1, 48 h, read-out: Activity
ACHN = test: Cytotoxicity against human ACHN cells assessed as cell growth at 5 uM after 48 hrs by SRB assay; details: read-out: Activity
NCI-H460 = test: Cytotoxicity against human NCI-H460 cells assessed as cell growth at 0.5 uM after 48 hrs by SRB assay; details: NCI-H460, 48 h, read-out: Activity
[10] = Cytotoxicity against human PC3 cells assessed as cell growth at 5 nM after 48 hrs by SRB assay; details: PC-3, 48 h, read-out: Activity
[11] = Cytotoxicity against human LOXIMVI cells assessed as cell growth at 50 uM after 48 hrs by SRB assay; details: LOX IMVI, read-out: Activity
[12] = Cytotoxicity against human HCT15 cells assessed as cell growth at 5 nM after 48 hrs by SRB assay; details: HCT-15, 48 h, read-out: Activity
A498 = test: Cytotoxicity against human A498 cells assessed as cell growth at 5 nM after 48 hrs by SRB assay; details: A498, 48 h, read-out: Activity
[13] = Cytotoxicity against human RXF393 cells assessed as cell growth at 5 uM after 48 hrs by SRB assay; details: RXF 393, 48 h, read-out: Activity
[14] = Cytotoxicity against human HOP92 cells assessed as cell growth at 5 uM after 48 hrs by SRB assay; details: HOP-92, 48 h, read-out: Activity
[15] = Cytotoxicity against human LOXIMVI cells assessed as cell growth at 5 nM after 48 hrs by SRB assay; details: LOX IMVI, read-out: Activity
A549 = test: Cytotoxicity against human A549 cells assessed as cell growth at 0.5 uM after 48 hrs by SRB assay; details: A549, 48 h, read-out: Activity
[16] = Cytotoxicity against human SNB19 cells assessed as cell growth at 0.5 uM after 48 hrs by SRB assay; details: SNB-19, 48 h, read-out: Activity

C/C(=C(/c1ccc(O)cc1)c1ccc(OCCN2CCCC2)cc1)c1ccccc1
growth at 100 µM (NCI-H226): -62%
growth at 0.1 µM [1]: 97%
growth at 1 µM [2]: 76%
growth at 0.01 µM [3]: 97%
growth at 0.1 µM [4]: 101%
growth at 1 µM (786-0): 89%
growth at 10 µM (T47D): -5%
growth at 1 µM (MDA-MB-435): 87%
growth at 100 µM [5]: -70%
growth at 100 µM (MDA-MB-468): -87%
growth at 10 µM [6]: 37%
growth at 100 µM (CCRF-CEM): -71%
growth at 0.1 µM [7]: 94%

CCCCCCCCCC(=O)Oc1ccc(/C(=C(/C)c2ccccc2)c2ccc(OCCN3CCCC3)cc2)cc1
growth at 5 µM (SN12C): 95%
growth at 0.5 µM [8]: 81%
growth at 0.005 µM [9]: 108%
growth at 5 µM (ACHN): 88%
growth at 0.5 µM (NCI-H460): 78%
growth at 0.005 µM [10]: 100%
growth at 50 µM [11]: -100%
growth at 0.005 µM [12]: 98%
growth at 0.005 µM (A498): 61%
growth at 5 µM [13]: 73%
growth at 5 µM [14]: 72%
growth at 0.005 µM [15]: 97%
growth at 0.5 µM (A549): 96%
growth at 0.5 µM [16]: 87%
